Data: the NIST ThermoML archive (doi:10.1016/j.jct.2011.01.013)
Numbers after ± are expanded uncertainties.

Experiment: mn = molality of the nth substance listed, in mol/kg
Conditions: 298.15 K, 101 kPa, Liquid; for viscosity: Capillary tube (Ostwald / Ubbelohde) method; for speed of sound: Sing-around technique in a fixed-path interferometer; for mass density: Vibrating tube method

CCCCn1cc[n+](C)c1.[Cl-] [1-butyl-3-methylimidazolium chloride] + O
Conditions | mass density [kg/m3] | speed of sound [m/s] | viscosity [mPa·s]
m1 = 0.0123 | 997.21 ± 0.4 | 1498.3 ± 0.9 | –
m1 = 0.01554 | – | – | 0.8981 ± 0.008
m1 = 0.01952 | – | – | 0.9005 ± 0.008
m1 = 0.02 | 997.31 ± 0.4 | 1499.3 ± 0.9 | –
m1 = 0.0252 | – | – | 0.9024 ± 0.008
m1 = 0.0279 | 997.41 ± 0.4 | 1500.3 ± 0.9 | –
m1 = 0.0349 | 997.5 ± 0.4 | 1501.2 ± 0.9 | –
m1 = 0.03495 | – | – | 0.9062 ± 0.008
m1 = 0.0404 | 997.57 ± 0.4 | 1501.9 ± 0.9 | –
m1 = 0.04454 | – | – | 0.9101 ± 0.008
m1 = 0.05402 | – | – | 0.9143 ± 0.008
m1 = 0.0624 | 997.85 ± 0.4 | 1504.8 ± 1 | –
m1 = 0.06772 | – | – | 0.9197 ± 0.008
m1 = 0.08128 | – | – | 0.9258 ± 0.0081
m1 = 0.09508 | – | – | 0.9323 ± 0.0081
m1 = 0.107 | 998.41 ± 0.4 | 1510.6 ± 1 | –
m1 = 0.1132 | – | – | 0.9412 ± 0.0081
m1 = 0.1175 | 998.54 ± 0.4 | 1512 ± 1 | –
m1 = 0.1296 | 998.69 ± 0.4 | 1513.5 ± 1 | –
m1 = 0.1521 | 998.97 ± 0.4 | 1516.5 ± 1 | –
m1 = 0.1677 | 999.16 ± 0.4 | 1518.6 ± 1 | –
m1 = 0.1852 | 999.38 ± 0.4 | 1520.9 ± 1 | –
m1 = 0.2113 | 999.7 ± 0.4 | 1524.3 ± 1 | –
m1 = 0.236 | 1000.01 ± 0.41 | 1527.6 ± 1 | –
m1 = 0.2591 | 1000.29 ± 0.41 | 1530.7 ± 1 | –
m1 = 0.2718 | 1000.45 ± 0.41 | 1532.4 ± 1 | –

CCCCn1cc[n+](C)c1.COS(=O)(=O)[O-] [1-butyl-3-methylimidazolium methyl sulfate] + O
Conditions | mass density [kg/m3] | speed of sound [m/s] | viscosity [mPa·s]
m1 = 0.00791 | – | – | 0.8954 ± 0.008
m1 = 0.0096 | 997.41 ± 0.4 | 1498 ± 0.94 | –
m1 = 0.01626 | – | – | 0.8999 ± 0.008
m1 = 0.02449 | – | – | 0.9046 ± 0.008
m1 = 0.0289 | 998.13 ± 0.4 | 1500.5 ± 0.95 | –
m1 = 0.0329 | – | – | 0.9095 ± 0.008
m1 = 0.0411 | 998.59 ± 0.4 | 1502 ± 0.95 | –
m1 = 0.04142 | – | – | 0.9133 ± 0.008
m1 = 0.0522 | – | – | 0.9182 ± 0.008
m1 = 0.0584 | 999.23 ± 0.4 | 1504.2 ± 0.95 | –
m1 = 0.06083 | – | – | 0.9236 ± 0.0081
m1 = 0.07206 | – | – | 0.9287 ± 0.0081
m1 = 0.0828 | 1000.11 ± 0.4 | 1507.2 ± 0.96 | –
m1 = 0.08297 | – | – | 0.9354 ± 0.0081
m1 = 0.09627 | – | – | 0.9428 ± 0.0081
m1 = 0.1188 | 1001.49 ± 0.41 | 1512 ± 0.96 | –
m1 = 0.1481 | 1002.58 ± 0.41 | 1515.7 ± 1 | –
m1 = 0.1736 | 1003.51 ± 0.41 | 1519 ± 0.97 | –
m1 = 0.2021 | 1004.58 ± 0.41 | 1522.6 ± 0.98 | –
m1 = 0.2252 | 1005.44 ± 0.41 | 1525.6 ± 0.98 | –

CCCCCCCCOS(=O)(=O)[O-].CCCCn1cc[n+](C)c1 [1-butyl-3-methylimidazolium octyl sulfate] + O
Conditions | mass density [kg/m3] | speed of sound [m/s] | viscosity [mPa·s]
m1 = 0.008 | 997.23 ± 0.4 | 1498.5 ± 0.9 | –
m1 = 0.00921 | – | – | 0.9054 ± 0.008
m1 = 0.0148 | 997.38 ± 0.4 | 1500.1 ± 0.9 | –
m1 = 0.01899 | – | – | 0.9173 ± 0.008
m1 = 0.0215 | 997.53 ± 0.4 | 1501.6 ± 1 | –
m1 = 0.02803 | – | – | 0.9278 ± 0.0081
m1 = 0.0301 | 997.72 ± 0.4 | 1503.6 ± 1 | –
m1 = 0.035 | 997.83 ± 0.4 | 1504.7 ± 1 | –
m1 = 0.03646 | – | – | 0.9388 ± 0.0081
m1 = 0.0423 | 997.99 ± 0.4 | 1506.2 ± 1 | –
m1 = 0.04596 | – | – | 0.9507 ± 0.0082
m1 = 0.0492 | 998.14 ± 0.4 | 1506.9 ± 1 | –
m1 = 0.05551 | – | – | 0.9615 ± 0.0082
m1 = 0.06482 | – | – | 0.9748 ± 0.0082
m1 = 0.0668 | 998.52 ± 0.4 | 1507.5 ± 1 | –
m1 = 0.07522 | – | – | 0.9873 ± 0.0083
m1 = 0.08499 | – | – | 0.9986 ± 0.0083
m1 = 0.0888 | 998.99 ± 0.4 | 1508.1 ± 1 | –
m1 = 0.0981 | – | – | 1.015 ± 0.0084
m1 = 0.1542 | 1000.35 ± 0.41 | 1509.5 ± 1 | –
m1 = 0.2466 | 1002.19 ± 0.41 | 1511.6 ± 1 | –
m1 = 0.3369 | 1003.92 ± 0.41 | 1513.9 ± 1 | –

CCCCn1cc[n+](C)c1.F[B-](F)(F)F [1-butyl-3-methylimidazolium tetrafluoroborate] + O
Conditions | mass density [kg/m3] | speed of sound [m/s] | viscosity [mPa·s]
m1 = 0.00382 | – | – | 0.8922 ± 0.0079
m1 = 0.01067 | – | – | 0.8943 ± 0.008
m1 = 0.0151 | 997.61 ± 0.4 | 1497.7 ± 0.9 | –
m1 = 0.02196 | – | – | 0.8986 ± 0.008
m1 = 0.03489 | – | – | 0.9024 ± 0.008
m1 = 0.0355 | 998.36 ± 0.4 | 1499.1 ± 0.9 | –
m1 = 0.04696 | – | – | 0.9053 ± 0.008
m1 = 0.05635 | – | – | 0.9095 ± 0.008
m1 = 0.0662 | – | – | 0.9133 ± 0.008
m1 = 0.07543 | – | – | 0.9162 ± 0.008
m1 = 0.0764 | 999.85 ± 0.4 | 1502 ± 1 | –
m1 = 0.08767 | – | – | 0.9198 ± 0.0081
m1 = 0.09802 | – | – | 0.9239 ± 0.0081
m1 = 0.1052 | 1000.89 ± 0.41 | 1504 ± 1 | –
m1 = 0.1284 | 1001.72 ± 0.41 | 1505.5 ± 1 | –
m1 = 0.1538 | 1002.64 ± 0.41 | 1507.3 ± 1 | –
m1 = 0.1803 | 1003.58 ± 0.41 | 1509.1 ± 1 | –
m1 = 0.2059 | 1004.49 ± 0.41 | 1510.9 ± 1 | –
m1 = 0.2269 | 1005.22 ± 0.41 | 1512.3 ± 1 | –
m1 = 0.2505 | 1006.06 ± 0.41 | 1513.9 ± 1 | –

CCCCCCCC[n+]1ccn(C)c1.[Cl-] [1-methyl-3-octylimidazolium chloride] + O
Conditions | mass density [kg/m3] | speed of sound [m/s] | viscosity [mPa·s]
m1 = 0.0074 | – | – | 0.8986 ± 0.008
m1 = 0.0127 | 997.14 ± 0.4 | 1499.2 ± 0.9 | –
m1 = 0.01484 | – | – | 0.9052 ± 0.008
m1 = 0.017 | 997.17 ± 0.4 | 1500 ± 0.9 | –
m1 = 0.02425 | – | – | 0.9131 ± 0.008
m1 = 0.0272 | 997.24 ± 0.4 | 1502 ± 0.9 | –
m1 = 0.039 | 997.32 ± 0.4 | 1504.4 ± 1 | –
m1 = 0.04255 | – | – | 0.9281 ± 0.0081
m1 = 0.0555 | 997.43 ± 0.4 | 1507.5 ± 1 | –
m1 = 0.05607 | – | – | 0.9387 ± 0.0081
m1 = 0.06607 | – | – | 0.946 ± 0.0081
m1 = 0.0693 | 997.52 ± 0.4 | 1510.1 ± 1 | –
m1 = 0.07893 | – | – | 0.956 ± 0.0082
m1 = 0.0892 | 997.65 ± 0.4 | 1513.8 ± 1 | –
m1 = 0.0928 | – | – | 0.968 ± 0.0082
m1 = 0.1002 | 997.72 ± 0.4 | 1515.7 ± 1 | –
m1 = 0.1061 | – | – | 0.9779 ± 0.0083
m1 = 0.1179 | 997.83 ± 0.4 | 1518.5 ± 1 | –
m1 = 0.1353 | 997.94 ± 0.4 | 1521.5 ± 1 | –
m1 = 0.1679 | 998.14 ± 0.4 | 1526.8 ± 1 | –
m1 = 0.183 | 998.23 ± 0.4 | 1529.5 ± 1 | –
m1 = 0.1948 | 998.3 ± 0.4 | 1531.3 ± 1 | –

CCCCCCCC[n+]1ccn(C)c1.F[B-](F)(F)F [1-methyl-3-octylimidazolium tetrafluoroborate] + O
Conditions | mass density [kg/m3] | speed of sound [m/s] | viscosity [mPa·s]
m1 = 0.00225 | – | – | 0.8929 ± 0.0079
m1 = 0.0045 | 997.19 ± 0.4 | 1497.4 ± 0.9 | –
m1 = 0.0058 | 997.23 ± 0.4 | 1497.5 ± 0.9 | –
m1 = 0.0077 | 997.29 ± 0.4 | 1497.8 ± 0.9 | –
m1 = 0.00773 | – | – | 0.8974 ± 0.008
m1 = 0.01093 | – | – | 0.8997 ± 0.008
m1 = 0.0112 | 997.4 ± 0.4 | 1498.3 ± 0.9 | –
m1 = 0.01518 | – | – | 0.9029 ± 0.008
m1 = 0.017 | 997.58 ± 0.4 | 1499 ± 0.9 | –
m1 = 0.01948 | – | – | 0.9059 ± 0.008
m1 = 0.0196 | 997.66 ± 0.4 | 1499.4 ± 0.9 | –
m1 = 0.0235 | 997.78 ± 0.4 | 1499.9 ± 0.9 | –
m1 = 0.02476 | – | – | 0.9094 ± 0.008
m1 = 0.0264 | 997.87 ± 0.4 | 1500.3 ± 0.9 | –
m1 = 0.0311 | – | – | 0.914 ± 0.008
m1 = 0.0369 | 998.19 ± 0.4 | 1501.7 ± 1 | –
m1 = 0.03923 | – | – | 0.9201 ± 0.008
m1 = 0.0428 | 998.37 ± 0.4 | 1502.5 ± 1 | –
m1 = 0.0454 | 998.45 ± 0.4 | 1502.9 ± 1 | –
m1 = 0.04705 | – | – | 0.9255 ± 0.0081
